A short description of data set [1]: Solubility in Swiss rapeseed oil at room temperature by incremental addition of oil. The format is physicochemical. The text has this: The minimum starting ratio was about 1:1, and trials were discontinued at above 10:1.
The test system of data set [2] is male Fisher rats. The experiment in a line: Effects of phytosterol esters on plasma triglycerides in rats on high fat diet. Type of data set: in vivo, rat. The note with it: for plasma triglycerides, Week 0 Means ± SD: Week 0 (pretreatment baseline), high fat diet, n=6; for plasma triglycerides, Week 2 Means ± SD: Week 2 of 2% (wt/wt) lipid in high fat diet; for plasma triglycerides, % change from pretreatment, Week 2: Week 2 vs week 0; for plasma triglycerides, Week 4 Means ± SD: Week 4 of 2% (wt/wt) lipid in high fat diet; for plasma triglycerides, % change from pretreatment, Week 4: Week 4 vs week 0. An excerpt:
(§1) Thirty male Fisher rats, weighing 177±14 g, were maintained on a high fat diet (Table 1) during the 2 weeks preceding treatment. They were then randomly divided into five experimental groups consisting of 6 animals each. The control group (Group 1) remained on the high fat diet used during the 2-week pretreatment period. For the other experimental diets, in order to have isocaloric diets and an equal amount of fat in all the experimental diets, 2% (wt/wt) of the fat content of the control diet (1% coconut oil and 1% corn oil) was replaced by 2% (wt/wt) of the following lipids:
(§2) The rats were allowed free access to water and feed, and they were maintained on a 12-hour light-dark cycle. The feed in the cages was replaced daily, all unconsumed material discarded and food intake measured. Blood samples (1 ml) were taken by retroorbital puncture at the start of the experimental period (week 0) and after 2 weeks of treatment (week 2). After 4 weeks, the animals were sacrificed by withdrawing blood from the vena cava under Isoflurane anesthesia. Blood was collected into tubes containing […] as an anticoagulant.
(§3) Plasma was prepared from the heparinized blood by immediate centrifugation at 1600 g for 10 minutes at 4° C. Assays of plasma cholesterol, triglycerides, and HDL-cholesterol (precipitation method) were determined enzymatically on a COBASFARA analyzer (Roche Diagnostica, Switzerland). Non-HDL cholesterol was calculated by difference. The fatty acid composition of the diets was analyzed by gas chromatography.
(§4) All data are expressed as means±SD (standard deviation) for animals in each diet group. The mean differences between dietary groups were analyzed by one-way analysis of covariance (ANCOVA) with subsequent Dunnet's test for multiple comparison against a control group (Group 1 and/or Group 2). The covariate adjusted for was the value of the corresponding parameter at the start of the treatment period (week 0). All tests were performed at the 5%-level and 95%-confidence intervals were calculated.

Data set [3] concerns male Fisher rats. The experiment in a line: Effects of phytosterol esters on lipoproteins (HDL and non-HDL cholesterol) in rats on high fat diet. Type of data set: in vivo, rat. The settings on record: time point not given; for Non HDL cholesterol Means: calculated by difference; for HDL Cholesterol Means: precipitation method.
From the text: as §1, §2, §3, §4

For data set [4], the system named is male Fisher rats. The data set is described as follows: Effects of phytosterol esters on plasma total cholesterol in rats on high fat diet. The format is in vivo, rat. The note with it: for plasma total cholesterol, Week 0 Means ± SD: Week 0 (pretreatment baseline), high fat diet, n=6; for plasma total cholesterol, Week 2 Means ± SD: Week 2 of 2% (wt/wt) lipid in high fat diet; for plasma total cholesterol, % change from pretreatment, Week 2: Week 2 vs week 0; for plasma total cholesterol, Week 4 Means ± SD: Week 4 of 2% (wt/wt) lipid in high fat diet; for plasma total cholesterol, % change from pretreatment, Week 4: Week 4 vs week 0.
From the text: as §1, §2, §3, §4

Setting [5] is: Swiss rapeseed oil, room temperature.
Setting [6] is: Swiss rapeseed oil, room temperature, minimum starting ratio about 1:1, discontinued above 10:1.

The values below come from US20020160990A1, “PHYTOSTEROL AND/OR PHYTOSTANOL DERIVATIVES” (priority 1998, published 2002).

Like-named read-outs stand apart in the source and are kept apart here. Marks after values point to notes of the source that are not given here.

In the case of `CC/C=C\C/C=C\C/C=C\C/C=C\C/C=C\CCCC(=O)OCC` [EPA ethyl ester 90%, EPA ethyl ester], the “Solubility (in words)” value in data set [1] (setting [5]) is “miscible”. Further, the “Solubility g oil/g material” value in data set [1] (setting [6]) is listed as over 1 g oil/g material.
Consider `CCC=CCC=CCC=CCC=CCC=CCC=CCCC(=O)OC1CC[C@@]2(C)C(CC[C@H]3[C@@H]4CC[C@H]([C@H](C)CC[C@@H](CC)C(C)C)[C@@]4(C)CC[C@@H]32)C1` (some centres unmarked) [Group 3, sitostanol-DHA ester], for which, in the data set on male Fisher rats [2], the “plasma triglycerides, Week 0 Means ± SD” value amounted to 1.25 ± 0.26; the “plasma triglycerides, Week 2 Means ± SD” value is given as 0.83 ± 0.13^b; the “plasma triglycerides, % change from pretreatment, Week 2” value is −34%; the “plasma triglycerides, Week 4 Means ± SD” value was 0.74 ± 0.15^b,c. For the same compound, the “plasma triglycerides, % change from pretreatment, Week 4” value in the data set on male Fisher rats [2] is given as −41%. Also, in the data set with male Fisher rats [3], the “Non HDL cholesterol Means” value is recorded as 0.75 ± 0.21^a and the “HDL Cholesterol Means” value was 0.49 ± 0.10^b. In the data set on male Fisher rats [4], the “plasma total cholesterol, Week 0 Means ± SD” value is recorded as 2.90 ± 0.58; the “plasma total cholesterol, Week 2 Means ± SD” value is 1.79 ± 0.37^b; the “plasma total cholesterol, % change from pretreatment, Week 2” value was −38%; the “plasma total cholesterol, Week 4 Means ± SD” value is given as 1.23 ± 0.26^b. For the same compound, the “plasma total cholesterol, % change from pretreatment, Week 4” value in the data set with male Fisher rats [4] is −58%.
`CC/C=C\C/C=C\C/C=C\C/C=C\C/C=C\CCCC(=O)O[C@H]1CC[C@@]2(C)C(=CC[C@H]3[C@@H]4CC[C@H]([C@H](C)/C=C/[C@@H](CC)C(C)C)[C@@]4(C)CC[C@@H]32)C1` [Group 4, stigmasterol-EPA ester]: in the data set with male Fisher rats [2], the “plasma triglycerides, Week 0 Means ± SD” value is 0.98 ± 0.15; the “plasma triglycerides, Week 2 Means ± SD” value is on record as 0.81 ± 0.19^b; the “plasma triglycerides, % change from pretreatment, Week 2” value is listed as −17%; the “plasma triglycerides, Week 4 Means ± SD” value was 0.83 ± 0.13^b,c. Besides, in the data set with male Fisher rats [2], the “plasma triglycerides, % change from pretreatment, Week 4” value was −15%. Moreover, in the data set with male Fisher rats [3], the “Non HDL cholesterol Means” value was 1.07 ± 0.26^a,b and the “HDL Cholesterol Means” value was 0.53 ± 0.08. Further, in the data set with male Fisher rats [4], the “plasma total cholesterol, Week 0 Means ± SD” value came out at 2.97 ± 0.49; the “plasma total cholesterol, Week 2 Means ± SD” value is on record as 1.94 ± 0.12^b; the “plasma total cholesterol, % change from pretreatment, Week 2” value is given as −35%; the “plasma total cholesterol, Week 4 Means ± SD” value is on record as 1.61 ± 0.25^b. The “plasma total cholesterol, % change from pretreatment, Week 4” value with male Fisher rats [4] is on record as −46%.
Take `CC/C=C\C/C=C\C/C=C\C/C=C\C/C=C\C/C=C\CCC(=O)OCC` [docosahexaenoic acid ethyl ester 90%, docosahexaenoic acid ethyl ester]: in data set [1], the “Solubility (in words)” value was “miscible” and the “Solubility g oil/g material” value is given as over 1 g oil/g material.
For the compound `CC[C@H](CC[C@@H](C)[C@H]1CC[C@H]2[C@@H]3CC[C@H]4C[C@@H](O)CC[C@]4(C)[C@H]3CC[C@]12C)C(C)C` [stigmastanol], in data set [1] (setting [5]), the “Solubility (in words)” value is “insoluble”. Besides, the “Solubility g oil/g material” value in data set [1] (setting [6]) is on record as over 10 g oil/g material.
For `CC/C=C\C/C=C\C/C=C\C/C=C\C/C=C\C/C=C\CCC(=O)O[C@H]1CC[C@@]2(C)C(=CC[C@H]3[C@@H]4CC[C@H]([C@H](C)/C=C/[C@@H](CC)C(C)C)[C@@]4(C)CC[C@@H]32)C1` [stigmasterol docosahexaenoate], the “Solubility (in words)” value in data set [1] (setting [5]) is on record as “miscible”. For the same compound, in data set [1] (setting [6]), the “Solubility g oil/g material” value is given as over 1 g oil/g material.
In the same order, the values of `CCC=CCC=CCC=CCC=CCC=CCCCC(=O)OC1CCC2(C)C(=CCC3C2CCC2(C)C(C(C)C=CC(CC)C(C)C)CCC32)C1` (centres unmarked) [stigmasterol eicosapentenoate, Stigmasterol eicosapenatenoate] are “miscible” and over 1 g oil/g material.
On the same counts, the results for `CC[C@H](/C=C/[C@@H](C)[C@H]1CC[C@H]2[C@@H]3CC=C4C[C@@H](O)CC[C@]4(C)[C@H]3CC[C@]12C)C(C)C` [stigmasterol] are “insoluble” and over 10 g oil/g material.
For the compound Stigmastanol docosahexaenoate, the “Solubility (in words)” value in data set [1] (setting [5]) is on record as “miscible”. Moreover, in data set [1] (setting [6]), the “Solubility g oil/g material” value was over 1 g oil/g material.
